Assay results published in patent US20190053489A1, “ANTIMICROBIAL COMPOSITION” (NATIONAL UNIVERSITY CORPORATION TOKYO MEDICAL AND DENTAL …, priority 2016, published 2019).

Key:
[1] = tested on: Mycobacterium avium Chester JCM15429; test: Proliferation suppression against pulmonary MAC in a diluted medium (OD600); type: cell-based
Protocol: This test employed Mycobacterium avium Chester JCM15429, and this microbe strain was cultured in a Middlebrook 7H9 medium at 37° C. for 2 weeks. The cultured microbial solution was collected by centrifugation (3000 rpm, 10 minutes), suspended with sterilized water, and then diluted with sterilized water so that the optical density would satisfy OD600 =1.0. The resultant was diluted 2000 times (corresponding to 10^6 CFU/ml) to prepare a reaction microbial solution.
Each of the Middlebrook 7H9 test medium samples was added with 100 μl of reaction microbial solution and was statically cultured under the condition of 37° C. Here, the Middlebrook 7H9 test medium samples were prepared using 10 ml of 1/2.5 Middlebrook 7H9 medium added with
(1) 10 ml of sterilized water, (2) 10 ml of the lysozyme-chitosan complex with a concentration of 0.002% (the concentration after addition was […]), (3) 10 ml of the lysozyme-chitosan complex with a concentration of 0.02% (the concentration after addition was 0.01%), (4) 10 ml of the lysozyme-chitosan complex with a concentration of 0.2% (the concentration after addition was 0.1%), (5) 10 ml of lysozyme alone with a concentration of 0.1% (the concentration after addition was 0.05%), (6) 10 ml of chitosan alone with a concentration of 0.1% (the concentration after addition was 0.05%), and (7) 10 ml of the mixture of lysozyme and chitosan with a concentration of 0.1% (the concentration of each after addition was 0.05%).
After that, 3 ml was extracted at time intervals (0, 5, 7, and 12 days), and the optical density was measured at an absorption wavelength of 600 nm. In addition, 100 μl was extracted when necessary and seeded on the Middlebrook 7H10 agar medium, and the number of colonies produced was observed.

[2] = tested on: Micrococcus luteus bacteria; test: Heat resistance evaluation by bacteriolytic test; type: physicochemical; conditions: 80° C. for 2 hours; ΔOD at 10 minutes with vs without heating; complex 5%, lysozyme 2.5% aqueous solution; FIG. 6(D)
Protocol: This test is a bacteriolytic test using Micrococcus luteus bacteria being lysozyme-sensitive bacteria. Note that the bacteriolytic activity is an activity specific to lysozyme. Lysozyme is a protein relatively stable against heat. However, it is known that this activity generally decreases considerably for lysozyme heated at 80° C. for 30 minutes.
This test employed an aqueous solution of the lysozyme-chitosan complex with a concentration of 5%, an aqueous solution of lysozyme with a concentration of 2.5%, and an aqueous solution of the mixture of lysozyme and chitosan with a concentration of […]. In addition, Micrococcus luteus bacteria manufactured by Wako Pure Chemical Industries, Ltd. were used as the use bacteria.
First, 1 g of Micrococcus luteus bacteria was weighed on the day before the test, added to 100 ml of physiological saline, and stirred overnight at 4° C. […]
In an optical density meter, 2800 μl of the test microbial solution was set to record OD (0-1) immediately before the addition of the sample. […] Since OD increased here, the highest value OD (0-2) was recorded.
Timer measurement was started after the addition of the sample to record OD at the time of 2, 4, 6, 8, and 10 minutes passed. Each test was carried out twice, and the average was calculated.
With OD for (0-2) being OD at the time of the start, Δoptical density (AOD) at each point was calculated. […]

pseudomonas aeruginosa = test: Observation of morphological change in pseudomonas aeruginosa by electron microscope; type: cell-based
Protocol: Next, the morphological change in MRSA was observed by using a transmission electron microscope. This observation with a transmission electron microscope was carried out as follows: the sample was sliced in 50 nm with a diamond knife as the pretreatment and was stained with uranium acetate and lead citrate, and a transmission electron microscope (JEM-1400 manufactured by JEOL Ltd.) was used. In addition, the samples were MRSA added with physiological saline and MRSA added with a lysozyme-chitosan complex with a concentration of 0.2% by mass.
Note that the morphological change in the case of adding the lysozyme-chitosan complex to pseudomonas aeruginosa was also observed using a transmission electron microscope in the same manner as above. […] In other words, the lysozyme-chitosan complex also has a resistant microbe inactivation effect for pseudomonas aeruginosa.
Observation was carried out with a scanning electron microscope for the morphological changes in MRSA and pseudomonas aeruginosa treated with the lysozyme-chitosan complex, lysozyme alone, chitosan alone, and the mixture of lysozyme and chitosan (treatment time: 2 hours). This observation with a scanning electron microscope was carried out in the same manner as Example 8 described above: osmium coating (4 nm) was performed as the conductive treatment, and a low-acceleration ultra-high resolution scanning electron microscope (SU 9000 manufactured by Hitachi High-Technologies Corporation (accelerating voltage: 1 kV)) was used. In addition, the samples were MRSA or pseudomonas aeruginosa added with physiological saline, a lysozyme-chitosan complex with a concentration of 0.1% by mass, lysozyme of 0.05% by mass, chitosan of 0.05% by mass, and a mixture of lysozyme and chitosan, each with 0.05% by mass.

[3] = tested on: Pseudomonas aeruginosa PAO 1; test: Proliferation suppression against pseudomonas aeruginosa PAO 1 in a standard medium (colony count method); type: cell-based; conditions: standard TSB medium; colony count 6 hours later; complex 0.2%, others 0.1%; FIG. 10
Description: This test employed Pseudomonas aeruginosa NBRC 13275 or PAO 1, and other procedures were the same as those of [Example 5] described earlier.
Note that the results of FIG. 9 are each the average value of the values obtained by carrying out the colony count method three times and that the results of FIG. 10 are each the average value of the values obtained by carrying out the colony count method five times.

Question: How did the “proliferation suppression effect against pulmonary MAC over 7 days, medium with phosphate buffer” value ([1]; Middlebrook 7H9 test medium further added with 10 mM phosphate buffer (pH 7.0), FIG. 5) turn out when “lysozyme-chitosan complex: complex of lysozyme and water-soluble chitosan (molecular weight 14000 Da) bound to each other through the Maillard reaction” was run?
Answer: marked proliferation suppression effect

Question: What about the “proliferation suppression effect against pulmonary MAC, classified by concentration” value ([1]; diluted Middlebrook 7H9 medium, complex 0.0010, 0.01%, 0.1% after addition, FIG. 3) of the same substance?
Answer: increased as the concentration of the lysozyme-chitosan complex increased

Question: What about the “proliferation suppression effect against pulmonary MAC over 7 days” value ([1]; diluted Middlebrook 7H9 medium, complex 0.1% vs lysozyme, chitosan, mixture 0.05% each, FIG. 4) of the same substance?
Answer: marked proliferation suppression effect

Question: What about the “residual activity (bacteriolytic) after heating treatment” value [2] of the same substance?
Answer: 91.9%

Question: What about the “morphological change in pseudomonas aeruginosa, transmission electron microscope” value (pseudomonas aeruginosa; FIG. 15) of the same substance?
Answer: destroys the cell walls of pseudomonas aeruginosa

Question: And the “morphological change in pseudomonas aeruginosa, scanning electron microscope, treatment time 2 hours” value (pseudomonas aeruginosa; complex 0.1% by mass, lysozyme 0.05%, chitosan 0.05%, mixture each 0.05%, FIG. 17)?
Answer: changed to a large extent

Question: And the “proliferation suppression effect against PAO 1” value [3]?
Answer: marked improvement effect compared to lysozyme alone, chitosan alone, and the mixture of lysozyme and chitosan
